Test results published in ChEMBL document CHEMBL1201861, “Genomics of Drug Sensitity in Cancer screening data, Wellcome Trust Sanger Institute”.

Assays:
Assay in all cases: cells
BB49-HNC = type: functional, cell-based, Homo sapiens; settings: Homo sapiens, BB49-HNC;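 note: cell viability assay read-out, reported as inhibition of BB49-HNC cell growth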
Description: SANGER: Inhibition of human BB49-HNC cell growth in a cell viability assay.

MLMA = type: functional, cell-based, Homo sapiens; settings: Homo sapiens, MLMA;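 note: growth inhibition of MLMA cells (human), determined through a cell viability readout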
Description: SANGER: Inhibition of human MLMA cell growth in a cell viability assay.

U-87 MG = type: functional, cell-based, U-87MG ATCC; settings: Homo sapiens;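 note: growth inhibition of the cells measured with a viability assay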
Description: SANGER: Inhibition of human U-87-MG cell growth in a cell viability assay.

COLO-829 = type: functional, cell-based, Homo sapiens; settings: Homo sapiens, COLO-829
Description: SANGER: Inhibition of human COLO-829 cell growth in a cell viability assay.

K5 = type: functional, cell-based, Homo sapiens; settings: Homo sapiens, K5
LB1047-RCC = type: functional, cell-based, Homo sapiens; settings: Homo sapiens, LB1047-RCC;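 note: inhibition of cell growth, determined with a cell viability assay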
Description: SANGER: Inhibition of human LB1047-RCC cell growth in a cell viability assay.

RH-1 = type: functional, cell-based, Homo sapiens; settings: Homo sapiens, RH-1;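 note: growth inhibition of human RH-1 cells, read out with a cell viability assay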
SK-PN-DW = type: functional, cell-based; settings: Homo sapiens;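 note: growth inhibition measured with a viability assay on these cells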
Description: SANGER: Inhibition of human SK-PN-DW cell growth in a cell viability assay.

BV-173 = type: functional, cell-based; settings: Homo sapiens
Description: SANGER: Inhibition of human BV-173 cell growth in a cell viability assay.

OMC-1 = type: functional, cell-based, Homo sapiens; settings: Homo sapiens, OMC-1;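 note: growth inhibition of the OMC-1 cell line, measured by a cell viability assay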
Description: SANGER: Inhibition of human OMC-1 cell growth in a cell viability assay.

KINGS-1 = type: functional, cell-based, Homo sapiens; settings: Homo sapiens, KINGS-1;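 note: cell viability assay measuring suppression of KINGS-1 cell growth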
Description: SANGER: Inhibition of human KINGS-1 cell growth in a cell viability assay.

ACN = type: functional, cell-based, Homo sapiens; settings: Homo sapiens, ACN;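 note: growth inhibition of the human ACN cell line, read out via cell viability testing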
Description: SANGER: Inhibition of human ACN cell growth in a cell viability assay.

DSH1 = type: functional, cell-based, Homo sapiens; settings: Homo sapiens, DSH1;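 note: growth inhibition of human DSH1 cells, measured with a cell viability readout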
Description: SANGER: Inhibition of human DSH1 cell growth in a cell viability assay.

DOHH-2 = type: functional, cell-based; settings: Homo sapiens;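 note: growth inhibition of human DOHH-2 cells, read out with a cell viability assay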
Description: SANGER: Inhibition of human DOHH-2 cell growth in a cell viability assay.

KM-H2 = type: functional, cell-based; settings: Homo sapiens;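 note: growth inhibition of KM-H2 cells, read out by a cell viability assay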
Description: SANGER: Inhibition of human KM-H2 cell growth in a cell viability assay.

CGTH-W-1 = type: functional, cell-based, Homo sapiens; settings: Homo sapiens, CGTH-W-1;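 note: growth inhibition of human CGTH-W-1 cells measured by cell viability assay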
Description: SANGER: Inhibition of human CGTH-W-1 cell growth in a cell viability assay.

NCI-H1650 = type: functional, cell-based, Homo sapiens; settings: Homo sapiens, NCI-H1650;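 note: growth inhibition of human NCI-H1650 cells measured by a cell viability assay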
Description: SANGER: Inhibition of human NCI-H1650 cell growth in a cell viability assay.

NCI-H526 = type: functional, cell-based; settings: Homo sapiens;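 note: growth inhibition of the human NCI-H526 cell line, measured by a cell viability assay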
Description: SANGER: Inhibition of human NCI-H526 cell growth in a cell viability assay.

HuTu80 = type: functional, cell-based, Homo sapiens, HUTU-80; settings: Homo sapiens, HuTu80;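 note: growth inhibition of HuTu80 human cells, determined with a cell viability readout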
Description: SANGER: Inhibition of human HUTU-80 cell growth in a cell viability assay.

EOL1 = type: functional, cell-based; settings: Homo sapiens;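 note: growth inhibition of EoL-1 cells, read out by a cell viability assay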
Description: SANGER: Inhibition of human EoL-1-cell cell growth in a cell viability assay.

NH-12 = type: functional, cell-based, Homo sapiens; settings: Homo sapiens, NH-12;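 note: growth inhibition of NH-12 cells, read out with a cell viability assay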
Description: SANGER: Inhibition of human NH-12 cell growth in a cell viability assay.

ES7 = type: functional, cell-based, Homo sapiens; settings: Homo sapiens, ES7;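 note: growth inhibition of cultured human ES7 cells, read out as cell viability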
Description: SANGER: Inhibition of human ES7 cell growth in a cell viability assay.

MFM-223 = type: functional, cell-based, Homo sapiens; settings: Homo sapiens, MFM-223
Description: SANGER: Inhibition of human MFM-223 cell growth in a cell viability assay.

GI-1 = type: functional, cell-based, Homo sapiens; settings: Homo sapiens, GI-1;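 note: growth inhibition of human GI-1 cells, measured with a cell viability readout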
Description: SANGER: Inhibition of human GI-1 cell growth in a cell viability assay.

NB10 = type: functional, cell-based, Homo sapiens; settings: Homo sapiens, NB10;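 note: growth inhibition of NB10 cells, read out by a cell viability assay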
Description: SANGER: Inhibition of human NB10 cell growth in a cell viability assay.

SW 954 = type: functional, cell-based, Homo sapiens; settings: Homo sapiens, SW 954;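 note: growth inhibition of SW954 human cancer cells, read out as cell viability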
Description: SANGER: Inhibition of human SW954 cell growth in a cell viability assay.

Structure (SMILES)	IC50 (BB49-HNC) [µM]	IC50 (MLMA) [µM]	IC50 (U-87 MG) [µM]	IC50 (COLO-829) [µM]	IC50 (K5) [µM]	IC50 (LB1047-RCC) [µM]	IC50 (RH-1) [µM]	IC50 (SK-PN-DW) [µM]	IC50 (BV-173) [µM]	IC50 (OMC-1) [µM]	IC50 (KINGS-1) [µM]	IC50 (ACN) [µM]	IC50 (DSH1) [µM]	IC50 (DOHH-2) [µM]	IC50 (KM-H2) [µM]	IC50 (CGTH-W-1) [µM]	IC50 (NCI-H526) [µM]	IC50 (HuTu80) [µM]	IC50 (EOL1) [µM]	IC50 (NH-12) [µM]	other results
C=C1C(=O)O[C@@H]2C3O[C@]3(C)CC/C=C(\C)CC[C@@H]12 (stereo not given in full)	> 5	> 5	> 5	> 5	> 5	> 5	> 5	> 5	> 5	> 5	> 5	> 5	> 5	> 5	> 5	> 5	> 5	> 5	> 5	> 5	IC50 (NCI-H1650): > 5 µM; IC50 (ES7): > 5 µM; IC50 (MFM-223): > 5 µM; IC50 (GI-1): > 5 µM; IC50 (NB10): > 5 µM; IC50 (SW 954): > 5 µM
CC1=C2C[C@H]3[C@@H](CC=C4C[C@@H](O)CC[C@@]43C)[C@@H]2CC[C@]12O[C@@H]1C[C@H](C)CN[C@H]1[C@H]2C [CYCLOPAMINE]	> 16	> 16	> 16	> 16	> 16	> 16	> 16	> 16	> 16	> 16	> 16	> 16	> 16	9.36	> 16	> 16	> 16	> 16	> 16	> 16	IC50 (NCI-H1650): > 16 µM; IC50 (ES7): > 16 µM; IC50 (MFM-223): > 16 µM; IC50 (GI-1): > 16 µM; IC50 (NB10): > 16 µM; IC50 (SW 954): > 16 µM
CS(=O)(=O)CCNCc1ccc(-c2ccc3ncnc(Nc4ccc(OCc5cccc(F)c5)c(Cl)c4)c3c2)o1 [LAPATINIB]	> 2	> 2	> 2	> 2	> 2	> 2	> 2	> 2	> 2	> 2	> 2	> 2	0.094	> 2	> 2	> 2	> 2	> 2	> 2	> 2	IC50 (NCI-H1650): > 2 µM; IC50 (ES7): > 2 µM; IC50 (MFM-223): > 2 µM; IC50 (GI-1): > 2 µM; IC50 (NB10): > 2 µM; IC50 (SW 954): > 2 µM
CCc1nc(N)nc(N)c1-c1ccc(Cl)cc1 [PYRIMETHAMINE]	> 20	> 20	> 20	7.28	> 20	> 20	> 20	> 20	12.7	> 20	> 20	2.3	4.98	> 20	12	17.5	7.92	12.1	> 20	> 20	IC50 (NCI-H1650): > 20 µM; IC50 (ES7): 14.8 µM; IC50 (MFM-223): > 20 µM; IC50 (GI-1): > 20 µM; IC50 (NB10): > 20 µM; IC50 (SW 954): > 20 µM
O=C(/C=C/c1ccccc1)NC(NC(=S)Nc1cccc2cccnc12)C(Cl)(Cl)Cl (stereo not given) [SALUBRINAL]	> 16	> 16	> 16	> 16	> 16	> 16	> 16	> 16	11.5	> 16	> 16	> 16	> 16	10.2	> 16	> 16	> 16	11.7	> 16	> 16	IC50 (NCI-H1650): > 16 µM; IC50 (ES7): > 16 µM; IC50 (MFM-223): > 16 µM; IC50 (GI-1): > 16 µM; IC50 (NB10): > 16 µM; IC50 (SW 954): > 16 µM
CN1CCN(CCOc2cc(OC3CCOCC3)c3c(Nc4c(Cl)ccc5c4OCO5)ncnc3c2)CC1 [SARACATINIB]	> 2	> 2	> 2	> 2	> 2	1.55	> 2	> 2	0.652	> 2	> 2	> 2	> 2	1.72	> 2	> 2	> 2	> 2	> 2	> 2	IC50 (ES7): > 2 µM; IC50 (MFM-223): > 2 µM; IC50 (GI-1): > 2 µM; IC50 (NB10): > 2 µM; IC50 (SW 954): > 2 µM
CNC(=O)c1cc(Oc2ccc(NC(=O)Nc3ccc(Cl)c(C(F)(F)F)c3)cc2)ccn1 [SORAFENIB]	> 4	> 4	> 4	> 4	> 4	> 4	> 4	> 4	> 4	> 4	> 4	> 4	> 4	> 4	> 4	0.25	> 4	> 4	> 4	> 4	IC50 (ES7): > 4 µM; IC50 (MFM-223): > 4 µM; IC50 (GI-1): > 4 µM; IC50 (NB10): > 4 µM; IC50 (SW 954): > 4 µM
